Laboratory results from PMC10099595, “Multimodal 4-arylchromene derivatives with microtubule-destabilizing, anti-angiogenic, and MYB-inhibitory activities” (Cancer Drug Resistance, 2023).
Like-named read-outs stand apart in the source and are kept apart here.

Experiments:
[1] = tested on: EA.hy926 endothelial hybrid cells; conditions: ref Köhler et al.[13]; cited from earlier work
518A2 melanoma cells [2] = conditions: ref Köhler et al.[13]; cited from earlier work
[3] = tested on: HCT-116 colon carcinoma cells; conditions: ref Köhler et al.[13]; cited from earlier work
[4] = tested on: HCT-116 p53-/- colon carcinoma cells; conditions: ref Köhler et al.[13]; cited from earlier work
U-87 glioblastoma cells [5] = conditions: ref Köhler et al.[13]; read-out: IC50 U87; cited from earlier work
[6] = tested on: HT-29 colon carcinoma cells; conditions: ref Köhler et al.[13]; cited from earlier work
[7] = tested on: KB-V1^Vbl cervix carcinoma cells; conditions: without verapamil; ref Köhler et al.[13]; cited from earlier work
[8] = tested on: MCF-7 breast carcinoma cells; conditions: ref Köhler et al.[13]; cited from earlier work
[9] = tested on: tested cancer and hybrid cell lines; experiment: MTT assay, average over all tested cancer and hybrid cell lines; conditions: for IC50: Homo sapiens; for SI (IC50 HDFa cells/IC50 tumor cell average): selectivity index, HDFa vs tumor cell average
Description: An 3-(4, 5-dimethylthiazol-2-yl)-2, 5-diphenyl tetrazolium bromid (MTT) assay was used for antiproliferative studies. Cancer cells (5 × 10^4 cells/mL, 100 μL/well) were placed in 96-well plates (10 × 10^4 cells/mL for HDFA and U87 cells), and the cells were incubated for 24 h at 5% CO2 and 95% humidity. Then, cells were treated with test compounds (at various concentrations) or solely with DMSO as a negative control for 72 h. Then, 12.5 μL of a 0.5% MTT solution in phosphate-buffered saline (PBS) was added to the cells, followed by incubation for 2 h at 37 °C. After centrifugation of the plates (300 × g, 5 min, 4 °C), the medium was discarded, and 25 μL of DMSO containing 10% SDS and 0.6% acetic acid was added, followed by incubation at 37 °C for at least 1 h. Formazan absorbance at λ = 570 nm was measured using a Tecan infinite F200 microplate reader and corrected for the background (λ = 630 nm). The 50% inhibitory concentration (IC50) values were calculated from dose-response curves (means ± SD, four independent experiments) compared to DMSO-treated control cells, which were set to 100%. GraphPad Prism 9 was used for curve-fitting.
The selectivity index (SI) was calculated as a measure of selectivity toward cancer cells compared to non-malignant cells.

[10] = tested on: EA.hy926 endothelial hybrid cells; experiment: MTT antiproliferative assay, EA.hy926; type: cell-based; conditions: Homo sapiens, EA.hy 926, 72 h
Excerpt: (§1) The following cell lines were used: 518A2 melanoma (Department of Radiotherapy, Medical University of Vienna, Austria)[15], HeLa cervix carcinoma, KBV1^Vbl (ACC-149 cervix carcinoma, MCF7 [ACC-115]) breast carcinoma, U-87 glioblastoma, HT-29 (ACC-299), HCT-116 (ACC-581) and HCT-116p53-/- colon carcinoma, EA.hy926 (ATCC® CRL-2922^TM) endothelial hybrid cells, and HDFa (ATCC® PCS-201-012^TM) adult human dermal fibroblasts. […] Only mycoplasma-free cultures were used.

518A2 melanoma cells [11] = experiment: MTT antiproliferative assay, 518A2; type: cell-based; conditions: Homo sapiens, 72 h
Excerpt: as §1

[12] = tested on: HCT-116 colon carcinoma cells; experiment: MTT antiproliferative assay, HCT-116; type: cell-based; conditions: Homo sapiens, 72 h
Excerpt: as §1

[13] = tested on: HCT-116 p53-/- colon carcinoma cells; experiment: MTT antiproliferative assay, HCT-116 p53-/-; type: cell-based; conditions: Homo sapiens, 72 h
Excerpt: as §1

U-87 glioblastoma cells [14] = experiment: MTT antiproliferative assay, U87; type: cell-based; conditions: Homo sapiens, 72 h
Excerpt: as §1

[15] = tested on: HT-29 colon carcinoma cells; experiment: MTT antiproliferative assay, HT-29; type: cell-based; conditions: Homo sapiens, 72 h
Excerpt: as §1

[16] = tested on: KB-V1^Vbl cervix carcinoma cells; experiment: MTT antiproliferative assay, KB-V1Vbl (with or without verapamil); type: cell-based, human; conditions: for IC50: Homo sapiens, KB-V1/Vbl, 72 h, read-out: IC50 KB-V1^Vbl
Excerpt: as §1

[17] = tested on: HeLa cervix carcinoma cells; experiment: MTT antiproliferative assay, HeLa; type: cell-based; conditions: Homo sapiens, 72 h
Excerpt: as §1

[18] = tested on: MCF-7 breast carcinoma cells; experiment: MTT antiproliferative assay, MCF-7; type: cell-based; conditions: Homo sapiens, MCF7, 72 h
Excerpt: as §1

[19] = tested on: HDFa adult human dermal fibroblasts; experiment: MTT cytotoxicity assay, non-malignant HDFa; type: cell-based; conditions: 72 h, non-malignant cells
Excerpt: as §1

zebrafish larvae = experiment: Zebrafish angiogenesis assay (SIV area); type: in vivo; conditions: 48 h treatment; for effect on SIV growth (angiogenesis): zebrafish larvae 24 hpf, 50-1000 nM
Description: Transgenic zebrafish (Tg(fli1:EGFP, casper mutant) were bred at 28 °C.[16] After fertilization, the eggs were transferred to E3-medium (5 mm NaCl, 0.17 mm KCl, 0.33 mm CaCl, 0.33 mm MgSO4, 0.01% methylene blue, pH 7.2), followed by incubation for 24 h. The chorion was manually removed, and the larvae were treated with test compounds or solvent in six-well plates (30 fish per concentration, 5 mL/well) for 48 h. The fluorescent vasculature was documented with a Leica MZ10F and Zeiss AxioCam MRrc. To quantify the angiogenesis, the sub-intestinal vein (SIV) area was measured using ImageJ and expressed as means ± SD with the control set to 100%. The significance of SIV reduction through substance treatment was assessed using one-way analysis of variance (ANOVA), *P < 0.05; **P < 0.01; ***P < 0.001; ****P < 0.0001, with Dunnett´s multiple comparison test (GraphPad Prism 9).

MYB = molecular target: T1, MYB (Homo sapiens, UniProt P10242, K503R/K527R); experiment: Luciferase-dependent MYB activity assay (HEK-MYB-Luc reporter cells); type: cell-based; conditions: HEK-293 reporter cells, 16 h; read-out: IC50 inhibition of MYB activity
T1 construct: expressed in transfected cells; host or cells: HEK-293 (HEK-MYB-Luc reporter cell line)
T1 sequence (P10242 whole entry K503R/K527R): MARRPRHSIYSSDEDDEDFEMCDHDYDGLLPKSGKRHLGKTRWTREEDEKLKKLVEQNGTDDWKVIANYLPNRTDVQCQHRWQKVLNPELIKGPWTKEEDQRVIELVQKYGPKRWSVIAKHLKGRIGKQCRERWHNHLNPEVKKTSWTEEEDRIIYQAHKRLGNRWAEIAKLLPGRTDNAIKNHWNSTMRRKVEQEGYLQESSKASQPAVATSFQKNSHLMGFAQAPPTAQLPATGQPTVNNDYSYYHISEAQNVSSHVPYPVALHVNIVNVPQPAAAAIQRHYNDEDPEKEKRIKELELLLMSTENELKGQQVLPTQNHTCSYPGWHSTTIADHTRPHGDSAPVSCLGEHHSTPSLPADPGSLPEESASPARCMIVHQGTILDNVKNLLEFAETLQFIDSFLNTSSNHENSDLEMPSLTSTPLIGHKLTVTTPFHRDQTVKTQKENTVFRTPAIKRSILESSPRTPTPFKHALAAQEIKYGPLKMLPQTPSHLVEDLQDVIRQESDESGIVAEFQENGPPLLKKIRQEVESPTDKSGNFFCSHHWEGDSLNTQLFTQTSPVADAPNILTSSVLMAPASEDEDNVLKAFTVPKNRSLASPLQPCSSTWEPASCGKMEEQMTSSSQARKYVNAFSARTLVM
Description: Compounds were tested using the HEK-MYB-Luc reporter cell line, which allows a doxycycline-dependent induction of MYB expression and harbors an MYB-dependent luciferase reporter plasmid, as previously described. After 16 h of substance treatment (0.0001-3 µM), luciferase activities were analyzed as described.

518A2 melanoma cells [20] = experiment: Cell-cycle analysis (FACS, propidium iodide); type: cell-based, human; conditions: 518A2 cells, 25 nM, 24 h
Description: 518A2 melanoma cells (10 × 10^4 cells/mL, 3 mL/well) were cultivated in six-well plates for 24 h. After the treatment with test compounds (10 and 25 nm), C-A4 (10 and 25 nm), or DMSO (vehicle) for an additional 24 h, the cells were trypsinized, centrifuged (300 × g, 5 min, 4 °C), and fixed in 70% EtOH for min. 24 h. For FACS measurement, cells were washed in PBS and stained with propidium iodide solution (50 µg/mL PI, 50 µg/mL RNase A in 0.1% sodium citrate) for 30 min at 37 °C. The DNA content of at least 10000 single cells was determined using a Beckmann Coulter Cytomics FC500 flow cytometer (λex = 488 nm, λem = 570 nm). CXP software (Beckman Coulter) was used to analyze the cells in the cell cycle phases (sub-G1, G1, S, G2/M).

[21] = tested on: microtubule cytoskeleton of 518A2 melanoma cells; experiment: Microtubule immunofluorescence staining; type: cell-based, human; conditions: 518A2 cells, 100 nM
Description: The cells were treated with test compounds and controls (25 and 100 nm) for 0.5, 1, 3, and 6 h and washed with cytoskeletal buffer (100 nm PIPES, 3 nm MgCl2, 138 nm KCl, 2 nm EGTA, 300 nm sucrose, pH 6.8). Fixation and permeabilization were performed for 5 min with 3.7% formaldehyde and 0.2% Triton X-100 in a cytoskeletal buffer. The cells were fixed with cold EtOH for 10 s, rehydrated in PBS, and blocked with 1% bovine serum albumin in PBS for 30 min. The microtubules were stained for 1 h with primary (anti-α-tubulin, mouse monoclonal antibody) and secondary antibodies (goat anti-mouse IgG-AF-546, Invitrogen) and washed with PBS between each treatment. Nuclei were stained using DAPI (1 µg/mL in PBS) for 30 min. The coverslips were placed in Roti®-Mount FluorCare. Microtubules (λex = 488 nm, λem = 507 nm) and nuclei (λex = 358 nm, λem = 461 nm) were documented by confocal microscopy (Leica TCS SP5 confocal microscope, 630 × magnification) and edited with ImageJ.

[22] = read-out: Average IC50 value of the tested cancer and hybrid cell lines (Ø IC50), average of all cell lines of Table 2
[23] = read-out: Average IC50 value of the tested cancer and hybrid cell lines (Ø IC50)

COc1c(I)cc(C2C(C#N)=C(N)Oc3c2c(=O)oc2ccccc32)cc1I (stereo not shown) [1C]
IC50 [1]: 2800 ± 70 nM | IC50 (518A2 melanoma cells [2]): 1500 ± 100 nM | IC50 [3]: 3.1 ± 0.1 µM | IC50 [4]: 2900 ± 60 nM | IC50 (U-87 glioblastoma cells [5]): 5.5 ± 0.3 µM | IC50 [6]: 2500 ± 200 nM | IC50 [7]: 3.7 ± 0.06 µM | IC50 [8]: 3.4 ± 0.2 µM | IC50 [9, 22]: > 500 nM

COc1ccc2c(c1)OC(N)=C(C#N)C2c1cc(Cl)c(OC)c(OC)c1 (stereo not shown) [2A, 2-Amino-3-cyano-4-(3’-chloro-4’, 5’-dimethoxyphenyl)-7-methoxy-4H-chromene]
IC50 [10]: 0.4 ± 0.06 nM | IC50 (518A2 melanoma cells [11]): 4 ± 0.3 nM | IC50 [12]: 70 ± 5 nM | IC50 [13]: 70 ± 5 nM | IC50 (U-87 glioblastoma cells [14]): 20 ± 3 nM | IC50 [15]: 300 ± 20 nM | IC50 ([16]; MTT, without verapamil): 6 ± 0.5 nM | IC50 [17]: 10 ± 0.4 nM | IC50 [18]: 40 ± 7 nM | IC50 [19]: 11.5 µM | effect on SIV growth (angiogenesis) (zebrafish larvae): inhibited angiogenesis to an extent comparable to the known inhibitor axitinib | IC50 (MYB): 2.81 ± 0.3 nM | melting point: 224 to 225 °C | IC50 [9, 22]: 53 nM | SI (IC50 HDFa cells/IC50 tumor cell average) [9]: 219

COc1ccc2c(c1)OC(N)=C(C#N)C2c1cc(Cl)c(OC)c(Cl)c1 (stereo not shown) [2D, 2-Amino-3-cyano-4-(3’, 5’-dichloro-4’-methoxyphenyl)-7-methoxy-4H-chromene]
IC50 [10]: 1100 ± 70 nM | IC50 (518A2 melanoma cells [11]): 2100 ± 200 nM | IC50 [12]: 2500 ± 200 nM | IC50 [13]: 1900 ± 200 nM | IC50 (U-87 glioblastoma cells [14]): 3900 ± 400 nM | IC50 [15]: 1400 ± 100 nM | IC50 ([16]; MTT, without verapamil): 2100 ± 100 nM | IC50 [17]: 700 ± 50 nM | IC50 [18]: 2400 ± 300 nM | G2/M cell-cycle arrest (in words) (518A2 melanoma cells [20]): only a slight increase in G2/M phase cells | IC50 [9, 22]: > 500 nM

COc1ccc2c(c1)OC(N)=C(C#N)C2c1cc(Br)c(OC)c(Br)c1 (stereo not shown) [2E, 2-Amino-3-cyano-4-(3’, 5’-dibromo-4’-methoxyphenyl)-7-methoxy-4H-chromene]
IC50 [10]: 20 ± 1 nM | IC50 (518A2 melanoma cells [11]): 20 ± 2 nM | IC50 [12]: 20 ± 2 nM | IC50 [13]: 40 ± 3 nM | IC50 (U-87 glioblastoma cells [14]): 20 ± 2 nM | IC50 [15]: 300 ± 2 nM | IC50 [16]: 3200 ± 300 nM | fold lower IC50 values combined with verapamil ([16]; KB-V1^Vbl cells, verapamil 1 µM vs none): 320 fold | IC50 [17]: 30 ± 3 nM | IC50 [18]: 80 ± 3 nM | IC50 [19]: 22.2 µM | G2/M cell-cycle arrest (in words) (518A2 melanoma cells [20]): only a slight increase in G2/M phase cells | IC50 [9, 23]: 374 nM | SI (IC50 HDFa cells/IC50 tumor cell average) [9]: 59

COc1ccc2c(c1)OC(N)=C(C#N)C2c1cc(I)c(OC)c(I)c1 (stereo not shown) [2F, 2-Amino-3-cyano-4-(3,5-diiodo-4-methoxyphenyl)-7-methoxy-4H-chromene]
IC50 [10]: 20 ± 2 nM | IC50 (518A2 melanoma cells [11]): 20 ± 0.4 nM | IC50 [12]: 30 ± 5 nM | IC50 (U-87 glioblastoma cells [14]): 50 ± 10 nM | IC50 [15]: 60 ± 1 nM | IC50 ([16]; MTT, without verapamil): 70 ± 7 nM | IC50 [17]: 30 ± 3 nM | IC50 [18]: 80 ± 4 nM | IC50 [19]: > 50 µM | cells arrested before or during mitosis (G2/M) (518A2 melanoma cells [20]): about 74% | time to change/breakdown of the microtubule cytoskeleton [21]: 1 h | effect on SIV growth (angiogenesis) (zebrafish larvae): no significant change in blood vessel growth | concentration above which toxic effect occurs (zebrafish larvae; zebrafish larvae): above 250 nM | IC50 (MYB): 2.31 ± 0.4 nM | IC50 [9, 22]: 43 nM

COc1ccc2c(c1)OC(N)=C(C#N)C2c1ccccc1Cl (stereo not shown) [2H, 2-Amino-3-cyano-4-(2’-chlorophenyl)-7-methoxy-4H-chromene]
IC50 [10]: 3700 ± 300 nM | IC50 (518A2 melanoma cells [11]): 2000 ± 100 nM | IC50 [12]: 3700 ± 400 nM | IC50 [13]: 2800 ± 300 nM | IC50 (U-87 glioblastoma cells [14]): 7400 ± 200 nM | IC50 [15]: 5300 ± 970 nM | IC50 ([16]; MTT, without verapamil): 1900 ± 200 nM | IC50 [17]: 1400 ± 100 nM | IC50 [18]: 5100 ± 370 nM | melting point: 184 °C | IC50 [9, 22]: > 500 nM

COc1ccc(/C=C\c2cc(OC)c(OC)c(OC)c2)cc1O [C-A4, combretastatin A4, reference compound]
G2/M cell-cycle arrest (in words) (518A2 melanoma cells [20]): significant G2/M cell-cycle arrest | time to change of the microtubule structure [21]: 30 min

C#CCOc1ccc2c(c1)OC(N)=C(C#N)C2c1cc(Br)c(OC)c(OC)c1 (stereo not shown) [compound 3, 2-Amino-3-cyano-4-(3’-bromo-4’, 5’-dimethoxyphenyl)-7-propargyloxy-4H-chromene]
IC50 [10]: 80 ± 2 nM | IC50 (518A2 melanoma cells [11]): 60 ± 3 nM | IC50 [12]: 300 ± 10 nM | IC50 [13]: 90 ± 7 nM | IC50 (U-87 glioblastoma cells [14]): 90 ± 3 nM | IC50 [15]: 2100 ± 300 nM | IC50 [16]: 80 ± 3 nM | IC50 [17]: 40 ± 2 nM | IC50 [18]: 70 ± 4 nM | melting point: 206 to 207 °C | IC50 [9, 23]: 321 nM
